Results as given in ChEMBL document CHEMBL1201862, “PubChem BioAssay data set” (2004).
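Cultured in 96-well plates, cells were exposed to test compound for 48 hours across five concentrations. Here, GI50 denotes the concentration required for 50% inhibition of growth.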 The source made the active and inactive calls. No stated cut-off is given here; in the data, active = GI50 up to about 1.1 µM and inactive = higher.

Legend:
Assay in all cases: NCI tumour cell line growth inhibition, 48 h
[1] = test system: HCC 2998
[2] = test system: HL-60
[3] = test system: SN12C
[4] = test system: UACC-62
[5] = test system: OVCAR-5
[6] = test system: MCF7
[7] = test system: T47D
[8] = test system: EKVX
[9] = test system: OVCAR-4
[10] = test system: A498
[11] = test system: NCI-H23
[12] = test system: COLO 205
[13] = test system: TK-10
[14] = test system: IGROV-1
[15] = test system: DU-145
[16] = test system: SK-MEL-28
[17] = test system: SF-268
[18] = test system: KM12
[19] = test system: A549
[20] = test system: HCT-15

SMILES | GI50 [1] | GI50 [2] | GI50 [3] | GI50 [4] | GI50 [5] | GI50 [6] | GI50 [7] | GI50 [8] | GI50 [9] | GI50 [10] | GI50 [11] | GI50 [12] | GI50 [13] | GI50 [14] | GI50 [15] | GI50 [16] | GI50 [17] | GI50 [18] | GI50 [19] | GI50 [20]
Cc1ccc(-c2cc(-c3ccc(Cl)cc3)nc(/N=C3\C(=O)N(CN4CCOCC4)c4ccccc43)n2)cc1 | 18.6 µM (inactive) | 9.02 µM (inactive) | 30.8 µM (inactive) | 20 µM (inactive) | 21.6 µM (inactive) | 19 µM (inactive) | 32.9 µM (inactive) | 30.8 µM (inactive) | 28.7 µM (inactive) | 18.8 µM (inactive) | 18.8 µM (inactive) | 26 µM (inactive) | 31 µM (inactive) | 15.2 µM (inactive) | 33.2 µM (inactive) | 49.1 µM (inactive) | 30.4 µM (inactive) | 22.4 µM (inactive) | 17.5 µM (inactive) | 26.6 µM
Nc1c2c(nc3cc(F)c(F)cc13)CCC2 | 14.5 µM (inactive) | 2.82 µM (inactive) | 43.2 µM (inactive) | 82.4 µM (inactive) | 49.9 µM (inactive) | 33.3 µM (inactive) | 96.6 µM (inactive) | 52.1 µM (inactive) | 58.2 µM (inactive) | 24.7 µM (inactive) | 99.5 µM (inactive) | 43.5 µM (inactive) | 26.4 µM (inactive) | 45.7 µM (inactive) | 52.6 µM (inactive) | 52.7 µM (inactive) | 58.5 µM (inactive) | 50.2 µM (inactive) | 42.2 µM (inactive) | 45.4 µM
C=C1C(=O)OC2C1C(OC(=O)/C(C)=C/C)CC(O)(CCl)C1C(O)C=C(C)C21O (stereo not given) | 12.6 µM (inactive) | 2.28 µM (inactive) | 14.4 µM (inactive) | 12.5 µM (inactive) | 16.7 µM (inactive) | 4.52 µM (inactive) | 11.9 µM (inactive) | 12 µM (inactive) | 14.2 µM (inactive) | 23.6 µM (inactive) | 13.8 µM (inactive) | 4.58 µM (inactive) | 14.1 µM (inactive) | 14.9 µM (inactive) | 16.5 µM (inactive) | 13.3 µM (inactive) | 22.9 µM (inactive) | 20.5 µM (inactive) | 28.7 µM (inactive) | 3.72 µM
CC(C)OC(=O)OCSc1ccccc1/N=C/c1cccc([N+](=O)[O-])c1 | > 10 µM (inactive) | > 10 µM (inactive) | > 10 µM (inactive) | > 10 µM (inactive) | > 10 µM (inactive) | > 10 µM (inactive) | > 10 µM (inactive) | > 10 µM (inactive) | > 10 µM (inactive) | > 10 µM (inactive) | > 10 µM (inactive) | > 10 µM (inactive) | > 10 µM (inactive) | > 10 µM (inactive) | > 10 µM (inactive) | > 10 µM (inactive) | > 10 µM (inactive) | > 10 µM (inactive) | > 10 µM (inactive) | > 10 µM
C[C@]12CC[C@H](OC3OC(CO)C(O)C(O)C3O)C[C@H]1CC[C@@H]1[C@@H]2CC[C@]2(C)[C@@H](C3=CCOC3=O)CC[C@]12O (stereo not given in full) [ACTODIGIN] | 26.8 µM (inactive) | 4.51 µM (inactive) | 20.1 µM (inactive) | 6.64 µM (inactive) | > 50 µM (inactive) | 10.4 µM (inactive) | > 100 µM (inactive) | 16.5 µM (inactive) | 41 µM (inactive) | 5.48 µM (inactive) | 15.8 µM (inactive) | 16.9 µM (inactive) | > 100 µM (inactive) | 28.4 µM (inactive) | > 100 µM (inactive) | 22.5 µM (inactive) | 8.2 µM (inactive) | 19.2 µM (inactive) | 15.7 µM (inactive) | 22.7 µM
Nc1ncnc2c1nc(Cl)n2[C@@H]1O[C@@H]2COP(=O)(O)O[C@H]2[C@H]1O [TOCLADESINE] | 37.8 µM (inactive) | 3.61 µM (inactive) | 12.6 µM (inactive) | 15.7 µM (inactive) | 27.7 µM (inactive) | 8.11 µM (inactive) | 14.7 µM (inactive) | 35.6 µM (inactive) | 16.6 µM (inactive) | 67.6 µM (inactive) | 16.5 µM (inactive) | 10 µM (inactive) | 15.1 µM (inactive) | 24.5 µM (inactive) | 12.5 µM (inactive) | 295 µM (inactive) | 32 µM (inactive) | 75.5 µM (inactive) | 22.8 µM (inactive) | 6.7 µM
